SMILES strings stand for the structures.

One data set has as its system mPTP. Kind of data set: mPTP activity (Ca2+ retention) assay in isolated rat liver mitochondria. The format is biochemical. As to conditions: isolated rat liver mitochondria; average value from multiple experiments (n ≥ 2). The source says:
Pharmacological inhibition or modulation of the mPTP can be measured in well characterised ‘Ca^2+ retention’ assays performed in isolated mitochondria. In vitro isolated mitochondria rapidly sequester exogenous Ca^2+ until the intramitochondrial Ca^2+ concentration reaches the threshold for mPTP activation. Once the pore is activated, mitochondrial integrity is compromised and the stored Ca^2+ is released. The distribution of Ca^2+ between extra- and intra-mitochondrial compartments can be measured in real time with the use of membrane-impermeant Ca^2+ sensitive fluorescent dyes. Depending on the configuration of the assay, inhibition or modulation of the mPTP either delays the opening of the pore or increases the concentration of Ca^2+ required to induce mPTP opening.
MPTP activity was measured in mitochondria freshly isolated from female Sprague Dawley (250 to 300 gram) rat livers using the following method. Cervical dislocation was performed on the rat. The liver was then perfused in-situ with ˜40 ml cold Dulbecco's Phosphate Buffered Saline (DPBS) prior to dissection and transferred into 30 ml Isolation Buffer (250 mM Sucrose, 10 mM KCl, 1 mM EGTA, 1 mM EDTA, 25 mM HEPES, adjusted to pH 7.5 with 1 M NaOH). Each lobe of the liver was then removed from the buffer, minced using tweezers and a scalpel into ˜5 mm pieces then transferred into a 50 ml Potterton dounce homogenization tube on ice containing 30 ml ice-cold centrifugation buffer (300 mM Trehalose, 25 mM HEPES, 1 mM EGTA, 1 mM EDTA, 10 mM KCl, adjusted to pH 7.5 with 1 M NaOH and supplemented with 0.1% bovine serum albumin (BSA) and complete protease inhibitor cocktail (one tablet of inhibitor per 50 mls of buffer). Homogenisation was carried out using a teflon pestle at 1800 rpm. The slurry was centrifuged at 800 g for 10 min at 4° C., then the supernatant centrifuged at 10,000 g for 10 min. The pellet was washed once with FLIPR assay buffer (75 mM Mannitol, 25 mM Sucrose, 5 mM Potassium Phosphate Monobasic, 20 mM Tris base, 100 mM KCl, 0.1% BSA adjusted to pH 7.4 with 5M HCl) centrifuged again, then resuspended in FLIPR assay buffer to a concentration of 8.8 mg/ml protein.
Tested compounds (10 mM stock in DMSO) were serially diluted in DMSO in half log steps to generate 10 test concentrations (final concentrations in assay 30 μM to 1 nM). An intermediate dilution of 5 μl DMSO samples into 247 μl FLIPR assay buffer was carried out prior to transfer of 5 μl into duplicate wells of a 384 well polypropylene assay plate. Control wells were 0.5% (v/v) DMSO and 5 μM cyclosporin A.
A stock mitochondria/Fluo5N assay solution was prepared in 5.6 ml FLIPR assay buffer (at RT) supplemented with succinate disodium salt (10 mM), rotenone (1 μM), Fluo5N pentapotassium salt (2 μM) and 1 ml mitochondria suspension, then transferred (15 μl) into the assay plate containing test compounds and incubated for 10 min at RT. Assay plates were then transferred to a FLIPR Tetra plate reader (Molecular Devices). Dye fluorescence was then measured every 3 sec for a total of 10 min. After 12 sec, a 2.5 μl bolus of CaCl2 (75 μM) was added from a source plate containing 675 μM CaCl2 in FLIPR assay buffer. IC50 values for tested compounds were calculated using the fluorescence value collected at the 10 min timepoint with % inhibition calculated using the DMSO control and cyclosporin A values as […] respectively.

The next data set has as its target CYP2D6 (Homo sapiens (Human), UniProt P10635). The data set can be described thus: Cytochrome P450 CYP2D6 inhibition in human liver microsomes. The format is in vitro ADME. As to conditions: probe dextromethorphan 2 µM (dextrorphan formation); 1 uM test compound, human liver microsomes; average value from two experiments; negative values = no effective inhibition. The procedure:
Studies to assess tested compound mediated inhibition of cytochrome P450 enzyme isoform CYP2D6 were performed using human liver microsomes (BD Gentest) using either a single concentration (1 μM) of test compound or concentration response (0.1, 0.3, 1, 3, 10 and 30 μM) to derive an IC50. Tested compound solutions were prepared from 10 mM stocks in DMSO and diluted to 200 μM in DMSO. Reactions were prepared in a 96 deep well plate by combining 1 μl test compound with 179 μl reaction mixture (100 mM phosphate buffered saline (PBS), 0.2 mg/mL microsomes and 2 μM Dextromethorphan prepared from stocks as detailed below).
The positive control inhibitor, quinidine, was used at a final concentration of 0.5 μM when used at a single concentration. The final concentrations of quinidine used to derive an IC50 were 0, 0.1, 0.3, 1, 3, 10 and 30 μM. Plates were warmed at 37° C. for 15 min before starting reactions with 20 μl 10 mM NADPH solution in PBS and incubated for 20 min at 37° C. The assay is performed in duplicate. Reactions were quenched with 200 μl cold acetonitrile containing internal standards (200 nM labetalol, 200 nM alprazolam and 100 nM tolbutamide). The plate was centrifuged at 4000 rpm for 30 minutes, placed on ice for 20 minutes and then centrifuged at 4000 rpm for 30 minutes again to precipitate protein. 100 μL of the supernatant was transferred to a new plate and diluted with 100 μL pure water before being analysed using UPLC/MS/MS. The products of the transformation for dextromethorphan to dextrorphan was monitored by UPLC-MS/MS. The inhibition of CYP2D6 in human liver microsomes was measured as the percentage decrease in the activity of dextrorphan formation compared to non-inhibited controls (=100% activity). The IC50 value was calculated (test compound concentration which produces 50% inhibition) by using Excel Xlfit.

CYP2D6, sequence (P10635 whole entry, canonical isoform): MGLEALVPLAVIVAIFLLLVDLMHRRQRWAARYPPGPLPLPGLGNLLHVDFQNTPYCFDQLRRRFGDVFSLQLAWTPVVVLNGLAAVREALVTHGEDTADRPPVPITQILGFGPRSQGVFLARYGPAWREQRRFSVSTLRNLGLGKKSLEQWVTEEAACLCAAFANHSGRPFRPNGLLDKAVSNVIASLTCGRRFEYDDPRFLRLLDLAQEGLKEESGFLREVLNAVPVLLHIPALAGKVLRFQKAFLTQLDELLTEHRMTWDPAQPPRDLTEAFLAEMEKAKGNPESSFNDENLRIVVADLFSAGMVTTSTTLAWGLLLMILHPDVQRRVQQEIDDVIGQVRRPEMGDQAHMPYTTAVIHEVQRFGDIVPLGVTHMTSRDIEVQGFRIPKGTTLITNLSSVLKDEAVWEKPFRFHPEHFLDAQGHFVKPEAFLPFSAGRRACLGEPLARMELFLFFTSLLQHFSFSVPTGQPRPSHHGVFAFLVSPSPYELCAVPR

On to `Cc1c(F)cccc1NC(=O)/C=C/c1ccc2sc(=O)[nH]c2c1` [Example 2, (E)-N-(3-fluoro-2-methylphenyl)-3-(2-oxo-2,3-dihydrobenzo[d]thiazol-5-yl)acrylamide], for which, in the data set with mPTP, the “mPTP Rat liver pIC50” value was 6.0.

As to `O=C(/C=C/c1ccc2oc(=O)[nH]c2c1)NC1CCc2ccccc21` (centres unmarked) [Example 11, (E)-N-(2,3-dihydro-1H-inden-1-yl)-3-(2-oxo-2,3-dihydrobenzo[d]oxazol-5-yl)acrylamide], the inhibition at 20 min, 1 µM on CYP2D6 is -0.63%. For the same compound, the “mPTP Rat liver pIC50” value in the data set with mPTP is recorded as 6.1.

Turning to `Cc1ccccc1NC(=O)/C=C/c1ccc2oc(=O)[nH]c2c1` [Example 12, (E)-3-(2-oxo-2,3-dihydrobenzo[d]oxazol-5-yl)-N-(o-tolyl)acrylamide], the inhibition at 20 min, 1 µM at CYP2D6 was found to be 3.05%. Moreover, the “mPTP Rat liver pIC50” value with mPTP amounted to 6.5.

As for `Cc1cc(F)c(F)cc1NC(=O)/C=C/c1ccc2oc(=O)[nH]c2c1` [Example 16, (E)-N-(4,5-difluoro-2-methylphenyl)-3-(2-oxo-2,3-dihydrobenzo[d]oxazol-5-yl)acrylamide], at CYP2D6, the inhibition at 20 min, 1 µM amounted to 1.72%. Further, the “mPTP Rat liver pIC50” value with mPTP is recorded as 6.8.

For `Cn1c(=O)[nH]c2cc(/C=C/C(=O)NC3CCc4ccccc43)ccc21` (centres unmarked) [Example 24, (E)-N-(2,3-dihydro-1H-inden-1-yl)-3-(1-methyl-2-oxo-2,3-dihydro-1H-benzo[d]imidazol-5-yl)acrylamide], the inhibition at 20 min, 1 µM at CYP2D6 was determined as 0.77%. Moreover, the “mPTP Rat liver pIC50” value in the data set with mPTP is reported as 6.1.

Consider `Cc1cccc(C)c1NC(=O)/C=C/c1ccc2c(C)n[nH]c2c1` [Example 31, (E)-N-(2,6-dimethylphenyl)-3-(3-methyl-1H-indazol-6-yl)acrylamide], for which the inhibition at 20 min, 1 µM against CYP2D6 came out at 19.9%. The “mPTP Rat liver pIC50” value in the data set on mPTP is on record as 7.7.

Consider `CCc1n[nH]c2cc(/C=C/C(=O)NC3CCc4ccccc43)ccc12` (centres unmarked) [Example 32, (E)-N-(2,3-dihydro-1H-inden-1-yl)-3-(3-ethyl-1H-indazol-6-yl)acrylamide], for which the inhibition at 20 min, 1 µM against CYP2D6 turned out to be 4.01%. In the data set with mPTP, the “mPTP Rat liver pIC50” value is 6.6.

`O=C(/C=C/c1ccc2c(C3CC3)n[nH]c2c1)NC1CCc2ccccc21` (centres unmarked) [Example 33, (E)-3-(3-cyclopropyl-1H-indazol-6-yl)-N-(2,3-dihydro-1H-inden-1-yl)acrylamide]: the inhibition at 20 min, 1 µM on CYP2D6 is -0.55%. Moreover, the “mPTP Rat liver pIC50” value in the data set with mPTP was found to be 6.3.

`Cc1n[nH]c2cc(/C=C/C(=O)NC3CCc4ccccc43)cc(F)c12` (centres unmarked) [Example 34, (E)-N-(2,3-dihydro-1H-inden-1-yl)-3-(4-fluoro-3-methyl-1H-indazol-6-yl)acrylamide]: the inhibition at 20 min, 1 µM against CYP2D6 amounted to 4.37%. Moreover, in the data set with mPTP, the “mPTP Rat liver pIC50” value is listed as 6.7.

For `Cc1n[nH]c2cc(/C=C/C(=O)N[C@@H]3CCCC[C@H]3C)ccc12` [Example 43, (E)-3-(3-methyl-1H-indazol-6-yl)-N-((1R,2R)-2-methylcyclohexyl)acrylamide], the “mPTP Rat liver pIC50” value with mPTP was 6.3.

As to `CC1Cc2ccccc2C1NC(=O)/C=C/c1ccc2c(c1)[nH]c(=O)n2C` (centres unmarked) [Example 45, (E)-N-(2-methyl-2,3-dihydro-1H-inden-1-yl)-3-(1-methyl-2-oxo-2,3-dihydro-1H-benzo[d]imidazol-5-yl)acrylamide], the “mPTP Rat liver pIC50” value with mPTP was 6.3.

With `CC1Cc2ccccc2C1NC(=O)/C=C/c1ccc2oc(=O)[nH]c2c1` (centres unmarked) [Example 46, (E)-N-(2-methyl-2,3-dihydro-1H-inden-1-yl)-3-(2-oxo-2,3-dihydrobenzo[d]oxazol-5-yl)acrylamide], the “mPTP Rat liver pIC50” value in the data set with mPTP is recorded as 6.3.

Take `Cc1n[nH]c2cc(/C=C/C(=O)NC3c4ccccc4OCC3C)ccc12` (centres unmarked) [Example 52, (E)-3-(3-methyl-1H-indazol-6-yl)-N-(3-methylchroman-4-yl)acrylamide]: the “mPTP Rat liver pIC50” value with mPTP came out at 6.9.

On to `Cc1n[nH]c2cc(/C=C/C(=O)NC3c4ccccc4CCC3C)ccc12` (centres unmarked) [Example 53, (E)-N-(2-methyl-1,2,3,4-tetrahydronaphthalen-1-yl)-3-(3-methyl-1H-indazol-6-yl)acrylamide], for which the “mPTP Rat liver pIC50” value in the data set on mPTP is 6.7.

On to `Cc1n[nH]c2cc(/C=C/C(=O)N[C@@H]3CCc4ccccc43)ccc12` [Example 55, (E)-N-(2,3-dihydro-1H-inden-1-yl)-3-(3-methyl-1H-indazol-6-yl)acrylamide], for which, in the data set with mPTP, the “mPTP Rat liver pIC50” value came to 7.1.

For the compound `O=C(/C=C/c1ccc2oc(=O)[nH]c2c1)NC1CCOc2ccccc21` (centres unmarked) [Example 56, (E)-N-(chroman-4-yl)-3-(2-oxo-2,3-dihydrobenzo[d]oxazol-5-yl)acrylamide], the “mPTP Rat liver pIC50” value in the data set with mPTP was found to be 5.8.

In the case of `O=C(/C=C/c1ccc2oc(=O)[nH]c2c1)NC1CCCc2ccccc21` (centres unmarked) [Example 57, (E)-3-(2-oxo-2,3-dihydrobenzo[d]oxazol-5-yl)-N-(1,2,3,4-tetrahydronaphthalen-1-yl)acrylamide], the “mPTP Rat liver pIC50” value with mPTP amounted to 5.8.

Turning to `CC1CCc2ccccc2C1NC(=O)/C=C/c1ccc2c(c1)NC(=O)C2` (centres unmarked) [Example 58], the “mPTP Rat liver pIC50” value with mPTP is recorded as 5.5.

For `O=C(/C=C/c1ccc2c(c1)NC(=O)C2)NC1CCc2ccccc21` (centres unmarked) [Example 59, (E)-N-(2,3-dihydro-1H-inden-1-yl)-3-(2-oxoindolin-6-yl)acrylamide], the “mPTP Rat liver pIC50” value in the data set with mPTP turned out to be 5.5.

Take `Cc1c(F)cc(F)cc1NC(=O)/C=C/c1ccc2c(c1)NC(=O)C2` [Example 60, (E)-N-(3,5-difluoro-2-methylphenyl)-3-(2-oxoindolin-6-yl)acrylamide]: the “mPTP Rat liver pIC50” value with mPTP was 5.7.

Take `O=C(/C=C/c1ccc2nn[nH]c2c1F)NC1CCc2ccccc21` (centres unmarked) [Example 61, (E)-N-(2,3-dihydro-1H-inden-1-yl)-3-(7-fluoro-1H-benzo[d][1,2,3]triazol-6-yl)acrylamide]: in the data set with mPTP, the “mPTP Rat liver pIC50” value came out at 5.6.

For the compound `O=C(/C=C/c1cc(F)c2nn[nH]c2c1)NC1CCc2ccccc21` (centres unmarked) [Example 62, (E)-N-(2,3-dihydro-1H-inden-1-yl)-3-(4-fluoro-1H-benzo[d][1,2,3]triazol-6-yl)acrylamide], the “mPTP Rat liver pIC50” value with mPTP worked out at 5.6.

Regarding `Cc1ccc(Cl)cc1NC(=O)/C=C/c1ccc2oc(=O)[nH]c2c1` [Example 63, (E)-N-(5-chloro-2-methylphenyl)-3-(2-oxo-2,3-dihydrobenzo[d]oxazol-5-yl)acrylamide], the “mPTP Rat liver pIC50” value in the data set on mPTP was 4.9.

With `CC1CCCCC1NC(=O)/C=C/c1ccc2c(c1)NC(=O)C2` (centres unmarked) [Example 64, (E)-N-(2-methylcyclohexyl)-3-(2-oxoindolin-6-yl)acrylamide], the “mPTP Rat liver pIC50” value in the data set on mPTP was found to be 4.9.

As a reminder, the inhibition is the drop in the measured response relative to a control, in per cent.

The values above are taken from patent publication US20250179028A1, “ACRYLAMIDE COMPOUNDS” (NRG THERAPEUTICS LTD, priority 2022, published 2025).
